Experimental data reported in US12655142B2 (Merck Patent GmbH, priority 2019, dated 2026).
Each block holds one compound with its values, some of them ahead of it.

Tests used:
[1] = molecular target: T1, c-Kit(V654A) (Homo sapiens, UniProt P10721, V654A); test: c-Kit(V654A) assay (33P-ATP filter binding kinase assay); assay type: biochemical; details: recombinant human c-Kit aa 544-end V654A, ATP 200 μM
T1 construct: recombinant human c-Kit, amino acids 544-end containing the V654A mutation; GST (N)
T1 sequence (P10721 544-976 V654A): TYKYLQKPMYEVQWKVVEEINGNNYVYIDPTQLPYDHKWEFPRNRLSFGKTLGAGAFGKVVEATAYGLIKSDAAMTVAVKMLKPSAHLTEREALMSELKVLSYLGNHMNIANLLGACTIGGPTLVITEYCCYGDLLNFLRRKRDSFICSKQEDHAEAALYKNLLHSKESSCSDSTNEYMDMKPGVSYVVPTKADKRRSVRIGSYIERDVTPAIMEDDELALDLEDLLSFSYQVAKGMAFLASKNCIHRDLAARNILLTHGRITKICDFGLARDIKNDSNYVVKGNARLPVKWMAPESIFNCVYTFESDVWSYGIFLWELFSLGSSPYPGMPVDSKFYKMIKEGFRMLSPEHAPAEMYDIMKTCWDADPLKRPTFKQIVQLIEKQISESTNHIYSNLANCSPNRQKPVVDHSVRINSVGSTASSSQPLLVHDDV
How it was run: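 Radiometric filter-binding read-out: substrate 33P incorporation counted by scintillation after P30 filtermat washes in 75 mM phosphoric acid and methanol. Enzyme: N-GST recombinant human c-Kit aa 544-end carrying V654A.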

[2] = molecular target: T2, GIST430/654 cell line expressing mutated constitutively active cKIT receptor tyrosine kinase (Δ560-576 deletion and V654A point mutation) (Homo sapiens, UniProt P10721, DEL560-576/V654A); test: Cellular cKIT autophosphorylation (phospho-Y307-cKIT, Luminex bead assay) in GIST430/654 cells; assay type: cell-based; details: compounds 45 min, read-out: GIST 430/654 IC50
T2 construct: endogenous in cells; host or cells: GIST430/654 cells
T2 sequence (P10721 with tags, fused parts or gaps DEL560-576/V654A): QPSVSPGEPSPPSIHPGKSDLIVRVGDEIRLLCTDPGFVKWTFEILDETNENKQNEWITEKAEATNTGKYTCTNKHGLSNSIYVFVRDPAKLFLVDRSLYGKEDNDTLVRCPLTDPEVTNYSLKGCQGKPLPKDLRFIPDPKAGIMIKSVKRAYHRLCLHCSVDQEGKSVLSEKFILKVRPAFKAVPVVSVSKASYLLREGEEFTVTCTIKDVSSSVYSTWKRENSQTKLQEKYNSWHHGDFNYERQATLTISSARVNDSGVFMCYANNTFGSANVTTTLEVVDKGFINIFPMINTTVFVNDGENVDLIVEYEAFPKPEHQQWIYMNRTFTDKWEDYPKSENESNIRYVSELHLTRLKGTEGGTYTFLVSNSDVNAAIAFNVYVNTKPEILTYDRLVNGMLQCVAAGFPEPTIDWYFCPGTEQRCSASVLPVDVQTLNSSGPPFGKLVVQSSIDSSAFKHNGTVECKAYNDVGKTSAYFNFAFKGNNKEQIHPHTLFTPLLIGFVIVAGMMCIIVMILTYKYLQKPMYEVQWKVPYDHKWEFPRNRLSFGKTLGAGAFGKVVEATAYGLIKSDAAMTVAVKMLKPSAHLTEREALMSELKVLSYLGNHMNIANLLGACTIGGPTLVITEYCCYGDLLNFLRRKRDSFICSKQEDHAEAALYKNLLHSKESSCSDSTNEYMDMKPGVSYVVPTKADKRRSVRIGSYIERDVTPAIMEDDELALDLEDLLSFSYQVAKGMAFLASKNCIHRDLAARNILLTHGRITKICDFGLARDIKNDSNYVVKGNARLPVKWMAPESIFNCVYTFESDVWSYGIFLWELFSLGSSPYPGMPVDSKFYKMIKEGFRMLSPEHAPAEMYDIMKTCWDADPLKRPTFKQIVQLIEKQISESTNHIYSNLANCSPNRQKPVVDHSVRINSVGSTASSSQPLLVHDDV
How it was run: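 GIST430 (Δ560-576) and imatinib-resistant GIST430/654 (plus V654A; grown with 100 nM imatinib) cells were plated in IMDM/15% FCS and treated next day with serially diluted compound for 45 min. Lysates were captured on anti-total-cKIT Luminex beads overnight at 4 °C and probed for phospho-Y307. IC50 was taken from percent of 0.3% DMSO control.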

Structure (SMILES): Cn1cc(-c2ccc(CNc3cc(-c4cnc5cc(OCc6nccn6C)ccn45)ncn3)cc2)cn1 [A113, {6-[7-(1-methyl-1H-imidazol-2-ylmethoxy)-imidazo[1,2-a]pyridin-3-yl]-pyrimidin-4-yl}-[4-(1-methyl-1H-pyrazol-4-yl)-benzyl]-amine]
IC50 [1]: 0.014 µM
IC50 [2]: 0.62 µM

Structure (SMILES): CN1CCO[C@H](COc2ccn3c(-c4cc(NCc5ccc(-c6cnn(C)n6)cc5)ncn4)cnc3c2)C1 [A122, {6-[7-((S)-4-methyl-morpholin-2-ylmethoxy)-imidazo[1,2-a]pyridin-3-yl]-pyrimidin-4-yl}-[4-(2-methyl-2H-[1,2,3]triazol-4-yl)-benzyl]-amine]
IC50 [1]: 0.026 µM
IC50 [2]: 0.26 µM

Structure (SMILES): CN1CCOC[C@@H]1COc1ccn2c(-c3cc(NCc4ccc(-c5cnn(C)c5)cc4)ncn3)cnc2c1 [A124, N-{[4-(1-methyl-1H-pyrazol-4-yl)phenyl]methyl}-6-(7-{[(3R)-4-methylmorpholin-3-yl]methoxy}imidazo[1,2-a]pyridin-3-yl)pyrimidin-4-amine]
IC50 [1]: 0.0074 µM
IC50 [2]: 0.053 µM

Structure (SMILES): CN1CCOC[C@H]1COc1ccn2c(-c3cc(NCc4ccc(-c5cnn(C)c5)cc4)ncn3)cnc2c1 [A125, N-{[4-(1-methyl-1H-pyrazol-4-yl)phenyl]methyl}-6-(7-{[(3S)-4-methylmorpholin-3-yl]methoxy}imidazo[1,2-a]pyridin-3-yl)pyrimidin-4-amine]
IC50 [1]: 0.023 µM
IC50 [2]: 0.21 µM

Structure (SMILES): Cn1ncc(-c2ccc(CNc3cc(-c4cnc5cc(OCCc6cccnc6)ccn45)ncn3)cc2)n1 [A126, [4-(2-methyl-2H-[1,2,3]triazol-4-yl)-benzyl]-{6-[7-(2-pyridin-3-yl-ethoxy)-imidazo[1,2-a]pyridin-3-yl]-pyrimidin-4-yl}-amine]
IC50 [1]: 0.016 µM
IC50 [2]: 0.14 µM

Structure (SMILES): Cn1ncc(-c2ccc(CNc3cc(-c4cnc5cc(OCCN6CC7CC7C6)ccn45)ncn3)cc2)n1 (stereo not shown) [A128, (6-{7-[2-(3-aza-bicyclo[3.1.0]hex-3-yl)-ethoxy]-imidazo[1,2-a]pyridin-3-yl}-pyrimidin-4-yl)-[4-(2-methyl-2H-[1,2,3]triazol-4-yl)-benzyl]-amine]
IC50 [1]: 0.0099 µM
IC50 [2]: 0.13 µM

Structure (SMILES): Cn1cc(-c2ccc(CNc3cc(-c4cnc5cc(OCCN6CCCC(F)(F)C6)ccn45)ncn3)cc2)cn1 [A136, 6-{7-[2-(3,3-difluoropiperidin-1-yl)ethoxy]imidazo[1,2-a]pyridin-3-yl}-N-{[4-(1-methyl-1H-pyrazol-4-yl)phenyl]methyl}pyrimidin-4-amine]
IC50 [1]: 0.01 µM
IC50 [2]: 0.15 µM

Structure (SMILES): Cn1cc(-c2ccc(CNc3cc(-c4cnc5cc(OCCN6CC(F)(F)C6)ccn45)ncn3)cc2)cn1 [A139, 6-{7-[2-(3,3-difluoroazetidin-1-yl)ethoxy]imidazo[1,2-a]pyridin-3-yl}-N-{[4-(1-methyl-1H-pyrazol-4-yl)phenyl]methyl}pyrimidin-4-amine]
IC50 [1]: 0.0096 µM
IC50 [2]: 0.16 µM

Structure (SMILES): Cn1cc(-c2ccc(CNc3cc(-c4cnc5cc(OCCCN6CC(F)(F)C6)ccn45)ncn3)cc2)cn1 [A142, 6-{7-[3-(3,3-difluoroazetidin-1-yl)propoxy]imidazo[1,2-a]pyridin-3-yl}-N-{[4-(1-methyl-1H-pyrazol-4-yl)phenyl]methyl}pyrimidin-4-amine]
IC50 [1]: 0.0073 µM
IC50 [2]: 0.065 µM

Structure (SMILES): Cn1cc(-c2ccc(CNc3cc(-c4cnc5cc(OCCCS(C)(=O)=O)ccn45)ncn3)cc2)cn1 [A143, {6-[7-(3-methanesulfonyl-propoxy)-imidazo[1,2-a]pyridin-3-yl]-pyrimidin-4-yl}-[4-(1-methyl-1H-pyrazol-4-yl)-benzyl]-amine]
IC50 [1]: 0.021 µM
IC50 [2]: 0.38 µM

Structure (SMILES): Cn1cc(-c2ccc(CNc3cc(-c4cnc5cc(OCCCN6CCCC6=O)ccn45)ncn3)cc2)cn1 [A145, 1-[3-({3-[6-({[4-(1-methyl-1H-pyrazol-4-yl)phenyl]methyl}amino)pyrimidin-4-yl]imidazo[1,2-a]pyridin-7-yl}oxy)propyl]pyrrolidin-2-one]
IC50 [1]: 0.041 µM
IC50 [2]: 0.25 µM

Stronger by IC50 [1], values ahead:

IC50 [1]: 0.0069 µM
IC50 [2]: 0.064 µM
Structure (SMILES): Cn1cc(-c2ccc(CNc3cc(-c4cnc5cc(OCCN6CCS(=O)(=O)CC6)ccn45)ncn3)cc2)cn1 [A138, 4-[2-({3-[6-({[4-(1-methyl-1H-pyrazol-4-yl)phenyl]methyl}amino)pyrimidin-4-yl]imidazo[1,2-a]pyridin-7-yl}oxy)ethyl]-1lambda6-thiomorpholine-1,1-dione]

IC50 [1]: 0.0067 µM
IC50 [2]: 0.1 µM
Structure (SMILES): Cn1cc(-c2ccc(CNc3cc(-c4cnc5cc(OCCN6CC7CC7C6)ccn45)ncn3)cc2)cn1 (stereo not shown) [A127, (6-{7-[2-(3-aza-bicyclo[3.1.0]hex-3-yl)-ethoxy]-imidazo[1,2-a]pyridin-3-yl}-pyrimidin-4-yl)-[4-(1-methyl-1H-pyrazol-4-yl)-benzyl]-amine]

IC50 [1]: 0.0061 µM
IC50 [2]: 0.062 µM
Structure (SMILES): CN1CCC(CCOc2ccn3c(-c4cc(NCc5ccc(-c6cnn(C)c6)cc5)ncn4)cnc3c2)CC1 [A129, (6-{7-[2-(1-methyl-piperidin-4-yl)-ethoxy]-imidazo[1,2-a]pyridin-3-yl}-pyrimidin-4-yl)-[4-(1-methyl-1H-pyrazol-4-yl)-benzyl]-amine]

IC50 [1]: 0.006 µM
IC50 [2]: 0.03 µM
Structure (SMILES): CN1CCO[C@@H](COc2ccn3c(-c4cc(NCc5ccc(-c6cnn(C)c6)cc5)ncn4)cnc3c2)C1 [A117, {6-[7-((R)-4-methyl-morpholin-2-ylmethoxy)-imidazo[1,2-a]pyridin-3-yl]-pyrimidin-4-yl}-[4-(1-methyl-1H-pyrazol-4-yl)-benzyl]-amine]

IC50 [1]: 0.0058 µM
IC50 [2]: 0.056 µM
Structure (SMILES): Cn1cc(-c2ccc(CNc3cc(-c4cnc5cc(OCCC6CCN(C7COC7)C6)ccn45)ncn3)cc2)cn1 (stereo not shown) [A123, [4-(1-methyl-1H-pyrazol-4-yl)-benzyl]-(6-{7-[2-(1-oxetan-3-yl-pyrrolidin-3-yl)-ethoxy]-imidazo[1,2-a]pyridin-3-yl}-pyrimidin-4-yl)-amine]

IC50 [1]: 0.0056 µM
IC50 [2]: 0.045 µM
Structure (SMILES): CCN(CC)CCCOc1ccn2c(-c3cc(NCc4ccc(-c5cnn(C)c5)cc4)ncn3)cnc2c1 [A137, 6-{7-[3-(diethylamino)propoxy]imidazo[1,2-a]pyridin-3-yl}-N-{[4-(1-methyl-1H-pyrazol-4-yl)phenyl]methyl}pyrimidin-4-amine]

IC50 [1]: 0.005 µM
IC50 [2]: 0.043 µM
Structure (SMILES): CN(C)CCCOc1ccn2c(-c3cc(NCc4ccc(-c5cnn(C)c5)cc4)ncn3)cnc2c1 [A132, {6-[7-(3-dimethylamino-propoxy)-imidazo[1,2-a]pyridin-3-yl]-pyrimidin-4-yl}-[4-(1-methyl-1H-pyrazol-4-yl)-benzyl]-amine]

IC50 [1]: 0.0047 µM
IC50 [2]: 0.04 µM
Structure (SMILES): CN1CCO[C@H](COc2ccn3c(-c4cc(NCc5ccc(-c6cnn(C)c6)cc5)ncn4)cnc3c2)C1 [A118, {6-[7-((S)-4-methyl-morpholin-2-ylmethoxy)-imidazo[1,2-a]pyridin-3-yl]-pyrimidin-4-yl}-[4-(1-methyl-1H-pyrazol-4-yl)-benzyl]-amine]

IC50 [1]: 0.0046 µM
IC50 [2]: 0.052 µM
Structure (SMILES): Cn1ncc(-c2ccc(CNc3cc(-c4cnc5cc(OCCCO)ccn45)ncn3)cc2)n1 [A134, 3-(3-{6-[4-(2-methyl-2H-[1,2,3]triazol-4-yl)-benzylamino]-pyrimidin-4-yl}-imidazo[1,2-a]pyridin-7-yloxy)-propan-1-ol]

IC50 [1]: 0.0037 µM
IC50 [2]: 0.049 µM
Structure (SMILES): CN1CCC(CCOc2ccn3c(-c4cc(NCc5ccc(-c6cnn(C)c6)cc5)ncn4)cnc3c2)C1 (stereo not shown) [A115, [4-(1-methyl-1H-pyrazol-4-yl)-benzyl]-(6-{7-[2-(1-methyl-pyrrolidin-3-yl)-ethoxy]-imidazo[1,2-a]pyridin-3-yl}-pyrimidin-4-yl)-amine]

IC50 [1]: 0.0036 µM
IC50 [2]: 0.034 µM
Structure (SMILES): CN1CCO[C@@H](COc2ccn3c(-c4cc(NCc5ccc(-c6cnn(C)n6)cc5)ncn4)cnc3c2)C1 [A121, {6-[7-((R)-4-methyl-morpholin-2-ylmethoxy)-imidazo[1,2-a]pyridin-3-yl]-pyrimidin-4-yl}-[4-(2-methyl-2H-[1,2,3]triazol-4-yl)-benzyl]-amine]

IC50 [1]: 0.0035 µM
IC50 [2]: 0.04 µM
Structure (SMILES): CN1CCC(CCOc2ccn3c(-c4cc(NCc5ccc(-c6cnn(C)n6)cc5)ncn4)cnc3c2)CC1 [A130, (6-{7-[2-(1-methyl-piperidin-4-yl)-ethoxy]-imidazo[1,2-a]pyridin-3-yl}-pyrimidin-4-yl)-[4-(2-methyl-2H-[1,2,3]triazol-4-yl)-benzyl]-amine]

IC50 [1]: 0.0034 µM
IC50 [2]: 0.062 µM
Structure (SMILES): Cn1ncc(-c2ccc(CNc3cc(-c4cnc5cc(OCCC6CCN(C7COC7)C6)ccn45)ncn3)cc2)n1 (stereo not shown) [A119, [4-(2-methyl-2H-[1,2,3]triazol-4-yl)-benzyl]-(6-{7-[2-(1-oxetan-3-yl-pyrrolidin-3-yl)-ethoxy]-imidazo[1,2-a]pyridin-3-yl}-pyrimidin-4-yl)-amine]

IC50 [1]: 0.002 µM
IC50 [2]: 0.21 µM
Structure (SMILES): CN(C)CCCOc1ccn2c(-c3cc(NCc4ccc(-c5cnn(C)n5)cc4)ncn3)cnc2c1 [A135, {6-[7-(3-dimethylamino-propoxy)-imidazo[1,2-a]pyridin-3-yl]-pyrimidin-4-yl}-[4-(2-methyl-2H-[1,2,3]triazol-4-yl)-benzyl]-amine]

IC50 [1]: 0.0016 µM
IC50 [2]: 0.048 µM
Structure (SMILES): CN1CCC(CCOc2ccn3c(-c4cc(NCc5ccc(-c6cnn(C)n6)cc5)ncn4)cnc3c2)C1 (stereo not shown) [A116, (6-{7-[2-(1-methyl-pyrrolidin-3-yl)-ethoxy]-imidazo[1,2-a]pyridin-3-yl}-pyrimidin-4-yl)-[4-(2-methyl-2H-[1,2,3]triazol-4-yl)-benzyl]-amine]
